The NIST ThermoML archive (doi:10.1016/j.jct.2014.09.020)
Numbers after ± are expanded uncertainties.

What was measured:
[1] = xn = mol fraction of the nth substance listed; conditions: Liquid, x1 = 1; for speed of sound: Frequency=4 MHz, Single path-length method; for mass density: Vibrating tube method
[2] = Liquid; for speed of sound: Frequency=4 MHz, Single path-length method; for mass density: Vibrating tube method

Q: Which speed of sound ([1]; 313.15 K, 100 kPa) does the source give for CCCCCCCCCC [decane] + c1ccc2c(c1)CCCC2 here?
A: Its speed of sound is 1177 ± 2 m/s.

Q: And the mass density ([1]; 313.15 K, 100 kPa)?
A: The mass density was 714.87 ± 1 kg/m3.

Q: And the speed of sound ([1]; 313.15 K, 5000 kPa)?
A: The speed of sound was 1209 ± 2 m/s.

Q: What about the speed of sound ([1]; 313.15 K, 10000 kPa) of the same compound?
A: The speed of sound was 1243 ± 2 m/s.

Q: And the speed of sound ([1]; 313.15 K, 15000 kPa)?
A: Its speed of sound is 1274 ± 2 m/s.

Q: What about the speed of sound ([1]; 313.15 K, 20000 kPa) of the same compound?
A: The speed of sound was 1303 ± 2 m/s.

Q: What about the speed of sound ([1]; 313.15 K, 25000 kPa) of the same compound?
A: The speed of sound was 1327 ± 2 m/s.

Q: And the speed of sound ([1]; 323.15 K, 100 kPa)?
A: The speed of sound was 1139 ± 2 m/s.

Q: And the mass density ([1]; 323.15 K, 100 kPa)?
A: Its mass density is 707.2 ± 1 kg/m3.

Q: What about the speed of sound ([1]; 323.15 K, 5000 kPa) of the same compound?
A: The speed of sound was 1174 ± 2 m/s.

Q: And the speed of sound ([1]; 323.15 K, 10000 kPa)?
A: The speed of sound was 1207 ± 2 m/s.

Q: What about the speed of sound ([1]; 323.15 K, 15000 kPa) of the same compound?
A: The speed of sound was 1238 ± 2 m/s.

Q: What about the speed of sound ([1]; 323.15 K, 20000 kPa) of the same compound?
A: The speed of sound was 1269 ± 2 m/s.

Q: And the speed of sound ([1]; 323.15 K, 25000 kPa)?
A: Its speed of sound is 1296 ± 2 m/s.

Q: And the speed of sound ([1]; 333.15 K, 100 kPa)?
A: Its speed of sound is 1099 ± 2 m/s.

Q: What about the mass density ([1]; 333.15 K, 100 kPa) of the same compound?
A: Its mass density is 699.47 ± 1 kg/m3.

Q: And the speed of sound ([1]; 333.15 K, 5000 kPa)?
A: Its speed of sound is 1134 ± 2 m/s.

Q: What about the speed of sound ([1]; 333.15 K, 10000 kPa) of the same compound?
A: The speed of sound was 1171 ± 2 m/s.

Q: And the speed of sound ([1]; 333.15 K, 15000 kPa)?
A: Its speed of sound is 1204 ± 2 m/s.

Q: And the speed of sound ([1]; 333.15 K, 20000 kPa)?
A: Its speed of sound is 1234 ± 2 m/s.

Q: And the speed of sound ([1]; 333.15 K, 25000 kPa)?
A: Its speed of sound is 1264 ± 2 m/s.

Q: For CCCCCCCCCC [decane], which speed of sound ([2]; 313.15 K, 100 kPa) is on record?
A: The speed of sound was 1177 ± 2 m/s.

Q: And the mass density ([2]; 313.15 K, 100 kPa)?
A: Its mass density is 714.87 ± 1 kg/m3.

Q: What about the speed of sound ([2]; 313.15 K, 5000 kPa) of the same compound?
A: The speed of sound was 1209 ± 2 m/s.

Q: What about the speed of sound ([2]; 313.15 K, 10000 kPa) of the same compound?
A: Its speed of sound is 1243 ± 2 m/s.

Q: What about the speed of sound ([2]; 313.15 K, 15000 kPa) of the same compound?
A: The speed of sound was 1274 ± 2 m/s.

Q: And the speed of sound ([2]; 313.15 K, 20000 kPa)?
A: The speed of sound was 1303 ± 2 m/s.

Q: And the speed of sound ([2]; 313.15 K, 25000 kPa)?
A: Its speed of sound is 1327 ± 2 m/s.

Q: What about the speed of sound ([2]; 323.15 K, 100 kPa) of the same compound?
A: The speed of sound was 1139 ± 2 m/s.

Q: What about the mass density ([2]; 323.15 K, 100 kPa) of the same compound?
A: Its mass density is 707.2 ± 1 kg/m3.

Q: And the speed of sound ([2]; 323.15 K, 5000 kPa)?
A: Its speed of sound is 1174 ± 2 m/s.

Q: What about the speed of sound ([2]; 323.15 K, 10000 kPa) of the same compound?
A: The speed of sound was 1207 ± 2 m/s.

Q: What about the speed of sound ([2]; 323.15 K, 15000 kPa) of the same compound?
A: The speed of sound was 1238 ± 2 m/s.

Q: And the speed of sound ([2]; 323.15 K, 20000 kPa)?
A: Its speed of sound is 1269 ± 2 m/s.

Q: What about the speed of sound ([2]; 323.15 K, 25000 kPa) of the same compound?
A: Its speed of sound is 1296 ± 2 m/s.

Q: And the speed of sound ([2]; 333.15 K, 100 kPa)?
A: The speed of sound was 1099 ± 2 m/s.

Q: And the mass density ([2]; 333.15 K, 100 kPa)?
A: Its mass density is 699.47 ± 1 kg/m3.

Q: What about the speed of sound ([2]; 333.15 K, 5000 kPa) of the same compound?
A: Its speed of sound is 1134 ± 2 m/s.

Q: And the speed of sound ([2]; 333.15 K, 10000 kPa)?
A: The speed of sound was 1171 ± 2 m/s.

Q: And the speed of sound ([2]; 333.15 K, 15000 kPa)?
A: The speed of sound was 1204 ± 2 m/s.

Q: And the speed of sound ([2]; 333.15 K, 20000 kPa)?
A: Its speed of sound is 1234 ± 2 m/s.

Q: And the speed of sound ([2]; 333.15 K, 25000 kPa)?
A: Its speed of sound is 1264 ± 2 m/s.

Q: Which speed of sound ([1]; 313.15 K, 100 kPa) does the source give for CCCCCCCCCCCCCCCC [hexadecane] + c1ccc2c(c1)CCCC2 here?
A: Its speed of sound is 1283 ± 2 m/s.

Q: What about the mass density ([1]; 313.15 K, 100 kPa) of the same compound?
A: The mass density was 759.55 ± 1 kg/m3.

Q: And the speed of sound ([1]; 313.15 K, 5000 kPa)?
A: Its speed of sound is 1311 ± 2 m/s.

Q: What about the speed of sound ([1]; 313.15 K, 10000 kPa) of the same compound?
A: The speed of sound was 1340 ± 2 m/s.

Q: And the speed of sound ([1]; 313.15 K, 15000 kPa)?
A: The speed of sound was 1366 ± 2 m/s.

Q: What about the speed of sound ([1]; 313.15 K, 20000 kPa) of the same compound?
A: Its speed of sound is 1391 ± 2 m/s.

Q: And the speed of sound ([1]; 313.15 K, 25000 kPa)?
A: Its speed of sound is 1416 ± 2 m/s.

Q: And the speed of sound ([1]; 323.15 K, 100 kPa)?
A: Its speed of sound is 1248 ± 2 m/s.

Q: What about the mass density ([1]; 323.15 K, 100 kPa) of the same compound?
A: Its mass density is 752.64 ± 1 kg/m3.

Q: What about the speed of sound ([1]; 323.15 K, 5000 kPa) of the same compound?
A: The speed of sound was 1278 ± 2 m/s.

Q: What about the speed of sound ([1]; 323.15 K, 10000 kPa) of the same compound?
A: The speed of sound was 1307 ± 2 m/s.

Q: And the speed of sound ([1]; 323.15 K, 15000 kPa)?
A: Its speed of sound is 1335 ± 2 m/s.

Q: And the speed of sound ([1]; 323.15 K, 20000 kPa)?
A: The speed of sound was 1361 ± 2 m/s.

Q: And the speed of sound ([1]; 323.15 K, 25000 kPa)?
A: The speed of sound was 1387 ± 2 m/s.

Q: And the speed of sound ([1]; 333.15 K, 100 kPa)?
A: The speed of sound was 1212 ± 2 m/s.

Q: And the mass density ([1]; 333.15 K, 100 kPa)?
A: Its mass density is 745.73 ± 1 kg/m3.

Q: What about the speed of sound ([1]; 333.15 K, 5000 kPa) of the same compound?
A: Its speed of sound is 1242 ± 2 m/s.

Q: What about the speed of sound ([1]; 333.15 K, 10000 kPa) of the same compound?
A: Its speed of sound is 1273 ± 2 m/s.

Q: And the speed of sound ([1]; 333.15 K, 15000 kPa)?
A: Its speed of sound is 1301 ± 2 m/s.

Q: And the speed of sound ([1]; 333.15 K, 20000 kPa)?
A: The speed of sound was 1328 ± 2 m/s.

Q: And the speed of sound ([1]; 333.15 K, 25000 kPa)?
A: The speed of sound was 1354 ± 2 m/s.

Q: What does the source list for CCCCCCCCCCCCCCCC [hexadecane]?
A: speed of sound ([2]; 313.15 K, 100 kPa): 1283 ± 2 m/s; mass density ([2]; 313.15 K, 100 kPa): 759.55 ± 1 kg/m3; speed of sound ([2]; 313.15 K, 5000 kPa): 1311 ± 2 m/s; speed of sound ([2]; 313.15 K, 10000 kPa): 1340 ± 2 m/s; speed of sound ([2]; 313.15 K, 15000 kPa): 1366 ± 2 m/s; speed of sound ([2]; 313.15 K, 20000 kPa): 1391 ± 2 m/s; speed of sound ([2]; 313.15 K, 25000 kPa): 1416 ± 2 m/s; speed of sound ([2]; 323.15 K, 100 kPa): 1248 ± 2 m/s; mass density ([2]; 323.15 K, 100 kPa): 752.64 ± 1 kg/m3; speed of sound ([2]; 323.15 K, 5000 kPa): 1278 ± 2 m/s; speed of sound ([2]; 323.15 K, 10000 kPa): 1307 ± 2 m/s; speed of sound ([2]; 323.15 K, 15000 kPa): 1335 ± 2 m/s; speed of sound ([2]; 323.15 K, 20000 kPa): 1361 ± 2 m/s; speed of sound ([2]; 323.15 K, 25000 kPa): 1387 ± 2 m/s; speed of sound ([2]; 333.15 K, 100 kPa): 1212 ± 2 m/s; mass density ([2]; 333.15 K, 100 kPa): 745.73 ± 1 kg/m3; speed of sound ([2]; 333.15 K, 5000 kPa): 1242 ± 2 m/s; speed of sound ([2]; 333.15 K, 10000 kPa): 1273 ± 2 m/s; speed of sound ([2]; 333.15 K, 15000 kPa): 1301 ± 2 m/s; speed of sound ([2]; 333.15 K, 20000 kPa): 1328 ± 2 m/s; speed of sound ([2]; 333.15 K, 25000 kPa): 1354 ± 2 m/s

Q: Which results are given for c1ccc2c(c1)CCCC2 [1,2,3,4-tetrahydronaphthalene]?
A: speed of sound ([2]; 313.15 K, 100 kPa): 1413 ± 2 m/s; mass density ([2]; 313.15 K, 100 kPa): 952.93 ± 1.2 kg/m3; speed of sound ([2]; 313.15 K, 5000 kPa): 1434 ± 3 m/s; speed of sound ([2]; 313.15 K, 10000 kPa): 1455 ± 3 m/s; speed of sound ([2]; 313.15 K, 15000 kPa): 1475 ± 3 m/s; speed of sound ([2]; 313.15 K, 20000 kPa): 1495 ± 3 m/s; speed of sound ([2]; 313.15 K, 25000 kPa): 1513 ± 3 m/s; speed of sound ([2]; 323.15 K, 100 kPa): 1374 ± 2 m/s; mass density ([2]; 323.15 K, 100 kPa): 944.99 ± 1.2 kg/m3; speed of sound ([2]; 323.15 K, 5000 kPa): 1397 ± 3 m/s; speed of sound ([2]; 323.15 K, 10000 kPa): 1419 ± 3 m/s; speed of sound ([2]; 323.15 K, 15000 kPa): 1439 ± 3 m/s; speed of sound ([2]; 323.15 K, 20000 kPa): 1459 ± 3 m/s; speed of sound ([2]; 323.15 K, 25000 kPa): 1480 ± 3 m/s; speed of sound ([2]; 333.15 K, 100 kPa): 1335 ± 2 m/s; mass density ([2]; 333.15 K, 100 kPa): 937.04 ± 1.2 kg/m3; speed of sound ([2]; 333.15 K, 5000 kPa): 1359 ± 3 m/s; speed of sound ([2]; 333.15 K, 10000 kPa): 1383 ± 3 m/s; speed of sound ([2]; 333.15 K, 15000 kPa): 1402 ± 3 m/s; speed of sound ([2]; 333.15 K, 20000 kPa): 1425 ± 3 m/s; speed of sound ([2]; 333.15 K, 25000 kPa): 1445 ± 3 m/s
